Where a name gives a salt, the structure may show the parent alone. Read-outs that look alike come from different tables or passages of the source.
Key:
[1] = tested on: A. baumanii 13301 (ESBL strain); assay: Agar dilution MIC (CLSI); assay type: cell-based; conditions: for MIC: Acinetobacter baumannii
Experimental: (§1) In a typical study, overnight grown bacterial cultures were diluted appropriately and inoculated on the agar media containing doubling dilutions of the antibiotic. Observation for growth or no growth was performed after 16-20 hours of incubation at 35±2° C. in ambient air.

[2] = tested on: A. baumanii 13304 (ESBL strain); assay: Agar dilution MIC (CLSI); assay type: cell-based; conditions: for MIC: Acinetobacter baumannii
Experimental: as §1

[3] = tested on: A. baumanii 13305 (ESBL strain); assay: Agar dilution MIC (CLSI); assay type: cell-based; conditions: for MIC: Acinetobacter baumannii
Experimental: as §1

[4] = tested on: A. baumanii S-3 (ESBL strain); assay: Agar dilution MIC (CLSI); assay type: cell-based; conditions: for MIC: Acinetobacter baumannii
Experimental: as §1

[5] = tested on: A. baumanii S-4 (ESBL strain); assay: Agar dilution MIC (CLSI); assay type: cell-based; conditions: for MIC: Acinetobacter baumannii
Experimental: as §1

[6] = tested on: A. baumanii S-8 (ESBL strain); assay: Agar dilution MIC (CLSI); assay type: cell-based; conditions: for MIC: Acinetobacter baumannii
Experimental: as §1

[7] = tested on: A. baumanii S-10 (ESBL strain); assay: Agar dilution MIC (CLSI); assay type: cell-based; conditions: for MIC: Acinetobacter baumannii
Experimental: as §1

[8] = tested on: A. baumanii S-15 (ESBL strain); assay: Agar dilution MIC (CLSI); assay type: cell-based; conditions: for MIC: Acinetobacter baumannii
Experimental: as §1

[9] = tested on: ESBL strains; assay: Agar dilution MIC (CLSI), text summary over the strains; assay type: cell-based, A. baumanii
Experimental: as §1

[10] = alone, A. baumanii 13301, read-out: MIC
[11] = alone, A. baumanii 13304, read-out: MIC
[12] = alone, A. baumanii 13305, read-out: MIC
[13] = alone, A. baumanii S-3, read-out: MIC
[14] = alone, A. baumanii S-8, read-out: MIC
[15] = alone, A. baumanii S-10, read-out: MIC

CO/N=C(\C(=O)N[C@@H]1C(=O)N2C(C(=O)[O-])=C(C[N+]3(C)CCCC3)CS[C@H]12)c1csc(N)n1 [Cefepime, cefepime]
1 µg/mL: MIC of beta-lactam with NXL-104 (6 mcg/ml) + Sulbactam (6 mcg/ml) ([4]; A. baumanii S-3) | MIC of beta-lactam with NXL-104 (6 mcg/ml) + Sulbactam (6 mcg/ml) ([5]; A. baumanii S-4, NXL-104 6 mcg/ml + Sulbactam 6 mcg/ml)
8 µg/mL: MIC of beta-lactam with NXL-104 (4 mcg/ml) + Sulbactam (8 mcg/ml) ([6]; A. baumanii S-8) | MIC of beta-lactam with NXL-104 (4 mcg/ml) + Sulbactam (8 mcg/ml) ([7]; A. baumanii S-10) | MIC of beta-lactam with NXL-104 (4 mcg/ml) + Sulbactam (8 mcg/ml) ([8]; A. baumanii S-15, NXL-104 4 mcg/ml + Sulbactam 8 mcg/ml)
4 µg/mL: MIC of beta-lactam in presence of Sulbactam (4 to 8 mcg/ml) ([3]; A. baumanii 13305) | MIC of beta-lactam with NXL-104 (4 mcg/ml) + Sulbactam (8 mcg/ml) ([4]; A. baumanii S-3) | MIC of beta-lactam with NXL-104 (4 mcg/ml) + Sulbactam (8 mcg/ml) ([5]; A. baumanii S-4, NXL-104 4 mcg/ml + Sulbactam 8 mcg/ml)
<0.03 µg/mL: MIC of beta-lactam with NXL-104 (6 mcg/ml) + Sulbactam (6 mcg/ml) ([7]; A. baumanii S-10) | MIC of beta-lactam with NXL-104 (8 mcg/ml) + Sulbactam (4 mcg/ml) ([7]; A. baumanii S-10)
0.12 µg/mL: MIC of beta-lactam with NXL-104 (6 mcg/ml) + Sulbactam (6 mcg/ml) ([8]; A. baumanii S-15, NXL-104 6 mcg/ml + Sulbactam 6 mcg/ml)
<0.06 µg/mL: MIC of beta-lactam with NXL-104 (4 mcg/ml) + Sulbactam (4 mcg/ml) ([1]; A. baumanii 13301) | MIC of beta-lactam with NXL-104 (4 mcg/ml) + Sulbactam (8 mcg/ml) ([1]; A. baumanii 13301) | MIC of beta-lactam with NXL-104 (6 mcg/ml) + Sulbactam (6 mcg/ml) ([1]; A. baumanii 13301) | MIC of beta-lactam with NXL-104 (8 mcg/ml) + Sulbactam (4 mcg/ml) ([1]; A. baumanii 13301) | MIC of beta-lactam with NXL-104 (4 mcg/ml) + Sulbactam (4 mcg/ml) ([2]; A. baumanii 13304) | MIC of beta-lactam with NXL-104 (4 mcg/ml) + Sulbactam (8 mcg/ml) ([2]; A. baumanii 13304) | MIC of beta-lactam with NXL-104 (6 mcg/ml) + Sulbactam (6 mcg/ml) ([2]; A. baumanii 13304) | MIC of beta-lactam with NXL-104 (8 mcg/ml) + Sulbactam (4 mcg/ml) ([2]; A. baumanii 13304) | MIC of beta-lactam with NXL-104 (4 mcg/ml) + Sulbactam (4 mcg/ml) ([3]; A. baumanii 13305) | MIC of beta-lactam with NXL-104 (4 mcg/ml) + Sulbactam (8 mcg/ml) ([3]; A. baumanii 13305) | MIC of beta-lactam with NXL-104 (6 mcg/ml) + Sulbactam (6 mcg/ml) ([3]; A. baumanii 13305) | MIC of beta-lactam with NXL-104 (8 mcg/ml) + Sulbactam (4 mcg/ml) ([3]; A. baumanii 13305)
0.5 µg/mL: MIC of beta-lactam with NXL-104 (8 mcg/ml) + Sulbactam (4 mcg/ml) ([4]; A. baumanii S-3) | MIC of beta-lactam with NXL-104 (8 mcg/ml) + Sulbactam (4 mcg/ml) ([5]; A. baumanii S-4, NXL-104 8 mcg/ml + Sulbactam 4 mcg/ml) | MIC of beta-lactam with NXL-104 (6 mcg/ml) + Sulbactam (6 mcg/ml) ([6]; A. baumanii S-8) | MIC of beta-lactam with NXL-104 (8 mcg/ml) + Sulbactam (4 mcg/ml) ([6]; A. baumanii S-8) | MIC of beta-lactam with NXL-104 (8 mcg/ml) + Sulbactam (4 mcg/ml) ([8]; A. baumanii S-15, NXL-104 8 mcg/ml + Sulbactam 4 mcg/ml)

CO/N=C(\C(=O)N[C@@H]1C(=O)N2C(C(=O)[O-])=C(C[n+]3cccc4c3CCC4)CS[C@H]12)c1csc(N)n1 [Cefpirome, cefpirome]
32 µg/mL: MIC of beta-lactam in presence of Sulbactam (4 to 8 mcg/ml) ([2]; A. baumanii 13304, Sulbactam 4 to 8 mcg/ml) | MIC [2, 11] | MIC ([4]; A. baumanii S-3, NXL-104 4 to 8 mcg/ml, read-out: MIC of beta-lactam in presence of NXL-104 (4 to 8 mcg/ml)) | MIC of beta-lactam in presence of Sulbactam (4 to 8 mcg/ml) ([6]; A. baumanii S-8, Sulbactam 4 to 8 mcg/ml) | MIC [6, 14]
16 µg/mL: MIC ([2]; A. baumanii 13304, NXL-104 4 to 8 mcg/ml, read-out: MIC of beta-lactam in presence of NXL-104 (4 to 8 mcg/ml)) | MIC ([3]; A. baumanii 13305, NXL-104 4 to 8 mcg/ml, read-out: MIC of beta-lactam in presence of NXL-104 (4 to 8 mcg/ml)) | MIC [3, 12] | MIC of beta-lactam with NXL-104 (4 mcg/ml) + Sulbactam (4 mcg/ml) ([4]; A. baumanii S-3, NXL-104 4 mcg/ml + Sulbactam 4 mcg/ml) | MIC of beta-lactam with NXL-104 (4 mcg/ml) + Sulbactam (4 mcg/ml) ([6]; A. baumanii S-8, NXL-104 4 mcg/ml + Sulbactam 4 mcg/ml) | MIC ([6]; A. baumanii S-8, NXL-104 4 to 8 mcg/ml, read-out: MIC of beta-lactam in presence of NXL-104 (4 to 8 mcg/ml)) | MIC of beta-lactam with NXL-104 (4 mcg/ml) + Sulbactam (4 mcg/ml) ([7]; A. baumanii S-10, NXL-104 4 mcg/ml + Sulbactam 4 mcg/ml) | MIC ([7]; A. baumanii S-10, NXL-104 4 to 8 mcg/ml, read-out: MIC of beta-lactam in presence of NXL-104 (4 to 8 mcg/ml))
<0.06 µg/mL: MIC of beta-lactam with NXL-104 (4 mcg/ml) + Sulbactam (4 mcg/ml) ([1]; A. baumanii 13301) | MIC of beta-lactam with NXL-104 (4 mcg/ml) + Sulbactam (8 mcg/ml) ([1]; A. baumanii 13301) | MIC of beta-lactam with NXL-104 (6 mcg/ml) + Sulbactam (6 mcg/ml) ([1]; A. baumanii 13301) | MIC of beta-lactam with NXL-104 (8 mcg/ml) + Sulbactam (4 mcg/ml) ([1]; A. baumanii 13301) | MIC of beta-lactam with NXL-104 (4 mcg/ml) + Sulbactam (4 mcg/ml) ([2]; A. baumanii 13304) | MIC of beta-lactam with NXL-104 (4 mcg/ml) + Sulbactam (8 mcg/ml) ([2]; A. baumanii 13304) | MIC of beta-lactam with NXL-104 (6 mcg/ml) + Sulbactam (6 mcg/ml) ([2]; A. baumanii 13304) | MIC of beta-lactam with NXL-104 (8 mcg/ml) + Sulbactam (4 mcg/ml) ([2]; A. baumanii 13304) | MIC of beta-lactam with NXL-104 (4 mcg/ml) + Sulbactam (4 mcg/ml) ([3]; A. baumanii 13305) | MIC of beta-lactam with NXL-104 (4 mcg/ml) + Sulbactam (8 mcg/ml) ([3]; A. baumanii 13305) | MIC of beta-lactam with NXL-104 (6 mcg/ml) + Sulbactam (6 mcg/ml) ([3]; A. baumanii 13305) | MIC of beta-lactam with NXL-104 (8 mcg/ml) + Sulbactam (4 mcg/ml) ([3]; A. baumanii 13305)
>32 µg/mL: MIC of beta-lactam in presence of Sulbactam (4 to 8 mcg/ml) ([1]; A. baumanii 13301, Sulbactam 4 to 8 mcg/ml) | MIC of beta-lactam in presence of Sulbactam (4 to 8 mcg/ml) ([4]; A. baumanii S-3, Sulbactam 4 to 8 mcg/ml) | MIC of beta-lactam in presence of Sulbactam (4 to 8 mcg/ml) ([7]; A. baumanii S-10, Sulbactam 4 to 8 mcg/ml)
8 µg/mL: MIC of beta-lactam in presence of Sulbactam (4 to 8 mcg/ml) ([3]; A. baumanii 13305) | MIC of beta-lactam with NXL-104 (4 mcg/ml) + Sulbactam (8 mcg/ml) ([6]; A. baumanii S-8) | MIC of beta-lactam with NXL-104 (4 mcg/ml) + Sulbactam (8 mcg/ml) ([7]; A. baumanii S-10)
less than 0.03 mcg/ml: MIC in presence of sulbactam and NXL-104, lowest value ("as low as") [9]
4 µg/mL: MIC of beta-lactam with NXL-104 (4 mcg/ml) + Sulbactam (8 mcg/ml) ([4]; A. baumanii S-3)
<0.03 µg/mL: MIC of beta-lactam with NXL-104 (6 mcg/ml) + Sulbactam (6 mcg/ml) ([7]; A. baumanii S-10) | MIC of beta-lactam with NXL-104 (8 mcg/ml) + Sulbactam (4 mcg/ml) ([7]; A. baumanii S-10)
1 µg/mL: MIC of beta-lactam with NXL-104 (6 mcg/ml) + Sulbactam (6 mcg/ml) ([4]; A. baumanii S-3)
0.5 µg/mL: MIC of beta-lactam with NXL-104 (8 mcg/ml) + Sulbactam (4 mcg/ml) ([4]; A. baumanii S-3) | MIC of beta-lactam with NXL-104 (6 mcg/ml) + Sulbactam (6 mcg/ml) ([6]; A. baumanii S-8) | MIC of beta-lactam with NXL-104 (8 mcg/ml) + Sulbactam (4 mcg/ml) ([6]; A. baumanii S-8)
> 32 µg/mL: MIC ([1]; A. baumanii 13301, NXL-104 4 to 8 mcg/ml, read-out: MIC of beta-lactam in presence of NXL-104 (4 to 8 mcg/ml)) | MIC [1, 10] | MIC [4, 13] | MIC [7, 15]

NC(=O)[C@@H]1CC[C@@H]2CN1C(=O)N2OS(=O)(=O)O [NXL-104, sodium salt of trans-7-oxo-6-(sulphooxy)-1,6-diazabicyclo-[3.2.1]-octane-2-carboxamide]
16 µg/mL: MIC of NXL-104 in presence of Sulbactam (4 mcg/ml) ([4]; A. baumanii S-3, Sulbactam 4 mcg/ml) | MIC of NXL-104 in presence of Sulbactam (4 mcg/ml) ([5]; A. baumanii S-4, Sulbactam 4 mcg/ml) | MIC of NXL-104 in presence of Sulbactam (4 mcg/ml) ([6]; A. baumanii S-8, Sulbactam 4 mcg/ml) | MIC of NXL-104 in presence of Sulbactam (4 mcg/ml) ([7]; A. baumanii S-10, Sulbactam 4 mcg/ml) | MIC of NXL-104 in presence of Sulbactam (4 mcg/ml) ([8]; A. baumanii S-15, Sulbactam 4 mcg/ml)
2 µg/mL: MIC of NXL-104 in presence of Sulbactam (4 mcg/ml) ([1]; A. baumanii 13301, Sulbactam 4 mcg/ml) | MIC of NXL-104 in presence of Sulbactam (4 mcg/ml) ([2]; A. baumanii 13304, Sulbactam 4 mcg/ml) | MIC of NXL-104 in presence of Sulbactam (4 mcg/ml) ([3]; A. baumanii 13305, Sulbactam 4 mcg/ml)
> 64 µg/mL: MIC [1, 10] | MIC [2, 11] | MIC [3, 12] | MIC [4, 13] | MIC ([5]; alone, A. baumanii S-4, read-out: MIC) | MIC [6, 14] | MIC [7, 15] | MIC ([8]; alone, A. baumanii S-15, read-out: MIC)

CC1(C)[C@H](C(=O)O)N2C(=O)C[C@H]2S1(=O)=O [Sulbactam, sulbactam]
> 32 µg/mL: MIC [1] | MIC [2] | MIC [4] | MIC [5] | MIC [6] | MIC [7] | MIC [8]
16 µg/mL: MIC [3]

Reference: patent US9095594B2, “Pharmaceutical compositions comprising beta-lactam antibiotic, sulbactam and beta-lactamase inhibitor” (Wockhardt Ltd., priority 2011, dated 2015)
